{
  "source": "patent US7297818B2",
  "about": "“Adamantane derivatives” (AstraZeneca AB, priority 1999, dated 2007)",
  "note": "Structures can show the parent of a compound that is named as a salt.",
  "data": [
    {"smiles": "COCCNCCCc1ccc(Cl)c(C(=O)NCC23CC4CC(CC(C4)C2)C3)c1", "note": "(as salt: hydrochloride) [Example 22, 2-Chloro-5-[3-[(2-methoxyethyl)amino]propyl]-N-(tricyclo[3.3.1.1^3,7]dec-1-ylmethyl)-benzamide, hydrochloride salt]", "values": [
      {"measurement": "melting point", "value": "245 to 248", "unit": "°C"}
    ]}
  ]
}
